Assay results as given in ChEMBL document CHEMBL1275577, “Study of the in vitro activities of rifaximin and comparator agents against 536 anaerobic intestinal bacteria from the perspective of potential utility in pathology involving bowel flora” (Antimicrob Agents Chemother, 2009).

Tests used:
Type in all cases: functional
[1] = test system: Bacteroides thetaiotaomicron; test: Antimicrobial activity against Bacteroides thetaiotaomicron by Wadsworth agar dilution method in presence of beta-lactamase inhibitor Sulbactam
Prevotella intermedia = test: Antimicrobial activity against Prevotella intermedia by Wadsworth agar dilution method in presence of beta-lactamase inhibitor Sulbactam
Lactobacillus jensenii = test: Antimicrobial activity against Lactobacillus jensenii by Wadsworth agar dilution method in presence of beta-lactamase inhibitor Sulbactam
Prevotella disiens = test: Antimicrobial activity against Prevotella disiens by Wadsworth agar dilution method in presence of beta-lactamase inhibitor Sulbactam
[2] = test system: Lactiplantibacillus plantarum; test: Antimicrobial activity against Lactobacillus plantarum by Wadsworth agar dilution method in presence of beta-lactamase inhibitor Sulbactam
Ruminococcus obeum = test: Antimicrobial activity against Ruminococcus obeum by Wadsworth agar dilution method in presence of beta-lactamase inhibitor Sulbactam; details: Blautia obeum
Clostridium perfringens = test: Antimicrobial activity against Clostridium perfringens by Wadsworth agar dilution method in presence of beta-lactamase inhibitor Sulbactam
Tissierella praeacuta = test: Antimicrobial activity against Clostridium hastiforme by Wadsworth agar dilution method in presence of beta-lactamase inhibitor Sulbactam
[3] = test system: Fusobacterium necrophorum; test: Antimicrobial activity against Fusobacterium necrophorum by Wadsworth agar dilution method in presence of beta-lactamase inhibitor Sulbactam
Clostridium hathewayi = test: Antimicrobial activity against Clostridium hathewayi by Wadsworth agar dilution method in presence of beta-lactamase inhibitor Sulbactam; details: Hungatella hathewayi
Schaalia meyeri = test: Antimicrobial activity against Actinomyces meyeri by Wadsworth agar dilution method in presence of beta-lactamase inhibitor Sulbactam
Clostridioides difficile = test: Antimicrobial activity against Clostridium difficile by Wadsworth agar dilution method in presence of beta-lactamase inhibitor Sulbactam
Eubacterium callanderi = test: Antimicrobial activity against Eubacterium callanderi by Wadsworth agar dilution method in presence of beta-lactamase inhibitor Sulbactam
Blautia luti = test: Antimicrobial activity against Ruminococcus luti by Wadsworth agar dilution method in presence of beta-lactamase inhibitor Sulbactam
Clostridium symbiosum = test: Antimicrobial activity against Clostridium symbiosum by Wadsworth agar dilution method in presence of beta-lactamase inhibitor Sulbactam
Eubacterium rectale = test: Antimicrobial activity against Eubacterium rectale by Wadsworth agar dilution method in presence of beta-lactamase inhibitor Sulbactam; details: Agathobacter rectalis
[4] = test system: Lactobacillus catenaformis; test: Antimicrobial activity against Lactobacillus catenaformis by Wadsworth agar dilution method in presence of beta-lactamase inhibitor Sulbactam; details: Eggerthia catenaformis
[5] = test system: Bifidobacterium pseudolongum; test: Antimicrobial activity against Bifidobacterium pseudolongum by Wadsworth agar dilution method in presence of beta-lactamase inhibitor Sulbactam
Parabacteroides merdae = test: Antimicrobial activity against Parabacteroides merdae by Wadsworth agar dilution method in presence of beta-lactamase inhibitor Sulbactam
Blautia producta = test: Antimicrobial activity against Ruminococcus productus by Wadsworth agar dilution method in presence of beta-lactamase inhibitor Sulbactam
Clostridium beijerinckii = test: Antimicrobial activity against Clostridium beijerinckii by Wadsworth agar dilution method in presence of beta-lactamase inhibitor Sulbactam
Schaalia odontolytica = test: Antimicrobial activity against Actinomyces odontolyticus by Wadsworth agar dilution method in presence of beta-lactamase inhibitor Sulbactam
[6] = test system: Parabacteroides goldsteinii; test: Antimicrobial activity against Parabacteroides goldsteinii by Wadsworth agar dilution method in presence of beta-lactamase inhibitor Sulbactam
[7] = Antimicrobial activity against Bifidobacterium pseudocatenulatum by Wadsworth agar dilution method in presence of beta-lactamase inhibitor Sulbactam
Parvimonas micra = test: Antimicrobial activity against Peptostreptococcus micros by Wadsworth agar dilution method in presence of beta-lactamase inhibitor Sulbactam
Eggerthella lenta = test: Antimicrobial activity against Eggerthella lenta by Wadsworth agar dilution method in presence of beta-lactamase inhibitor Sulbactam
Clostridium sporogenes = test: Antimicrobial activity against Clostridium sporogenes by Wadsworth agar dilution method in presence of beta-lactamase inhibitor Sulbactam
Bacteroides fragilis = test: Antimicrobial activity against Bacteroides fragilis by Wadsworth agar dilution method in presence of beta-lactamase inhibitor Sulbactam
Clostridium fallax = test: Antimicrobial activity against Clostridium fallax by Wadsworth agar dilution method in presence of beta-lactamase inhibitor Sulbactam
Eubacterium cylindroides = test: Antimicrobial activity against Eubacterium cylindroides by Wadsworth agar dilution method in presence of beta-lactamase inhibitor Sulbactam; details: Faecalitalea cylindroides
Ruminococcus lactaris = test: Antimicrobial activity against Ruminococcus lactaris by Wadsworth agar dilution method in presence of beta-lactamase inhibitor Sulbactam
Clostridium scindens = test: Antimicrobial activity against Clostridium scindens by Wadsworth agar dilution method in presence of beta-lactamase inhibitor Sulbactam
Ruminococcus torques = test: Antimicrobial activity against Ruminococcus torques by Wadsworth agar dilution method in presence of beta-lactamase inhibitor Sulbactam; details: Mediterraneibacter torques
Clostridium tertium = test: Antimicrobial activity against Clostridium tertium by Wadsworth agar dilution method in presence of beta-lactamase inhibitor Sulbactam

SMILES: CC1(C)S[C@@H]2[C@H](NC(=O)[C@H](N)c3ccccc3)C(=O)N2[C@H]1C(=O)O [AMPICILLIN]
- MIC50 [1]: 4 µg/mL
- MIC90 [1]: 16 µg/mL
- MIC50 (Prevotella intermedia): 0.5 µg/mL
- MIC90 (Prevotella intermedia): 4 µg/mL
- MIC (Lactobacillus jensenii): 0.25 µg/mL
- MIC50 (Lactobacillus jensenii): 0.25 µg/mL
- MIC90 (Lactobacillus jensenii): 2 µg/mL
- MIC50 (Prevotella disiens): 0.5 µg/mL
- MIC90 (Prevotella disiens): 4 µg/mL
- MIC [2]: 0.25 µg/mL
- MIC50 [2]: 0.25 µg/mL
- MIC90 [2]: 2 µg/mL
- MIC (Ruminococcus obeum): 0.25 µg/mL
- MIC50 (Ruminococcus obeum): 0.25 µg/mL
- MIC90 (Ruminococcus obeum): 2 µg/mL
- MIC50 (Clostridium perfringens): 0.25 µg/mL
- MIC90 (Clostridium perfringens): 0.25 µg/mL
- MIC (Tissierella praeacuta): 0.25 µg/mL
- MIC50 (Tissierella praeacuta): 0.25 µg/mL
- MIC90 (Tissierella praeacuta): 1 µg/mL
- MIC50 [3]: 1 µg/mL
- MIC90 [3]: 4 µg/mL
- MIC50 (Clostridium hathewayi): 2 µg/mL
- MIC90 (Clostridium hathewayi): 2 µg/mL
- MIC (Schaalia meyeri): 0.25 µg/mL
- MIC50 (Schaalia meyeri): 0.25 µg/mL
- MIC90 (Schaalia meyeri): 2 µg/mL
- MIC50 (Clostridioides difficile): 2 µg/mL
- MIC90 (Clostridioides difficile): 4 µg/mL
- MIC (Eubacterium callanderi): 0.25 µg/mL
- MIC50 (Eubacterium callanderi): 0.25 µg/mL
- MIC90 (Eubacterium callanderi): 2 µg/mL
- MIC (Blautia luti): 0.25 µg/mL
- MIC50 (Blautia luti): 0.25 µg/mL
- MIC90 (Blautia luti): 2 µg/mL
- MIC (Clostridium symbiosum): 0.25 µg/mL
- MIC50 (Clostridium symbiosum): 0.25 µg/mL
- MIC90 (Clostridium symbiosum): 1 µg/mL
- MIC (Eubacterium rectale): 0.25 µg/mL
- MIC50 (Eubacterium rectale): 0.25 µg/mL
- MIC90 (Eubacterium rectale): 2 µg/mL
- MIC [4]: 0.25 µg/mL
- MIC50 [4]: 0.25 µg/mL
- MIC90 [4]: 2 µg/mL
- MIC [5]: 0.25 µg/mL
- MIC50 [5]: 0.25 µg/mL
- MIC90 [5]: 2 µg/mL
- MIC50 (Parabacteroides merdae): 16 µg/mL
- MIC90 (Parabacteroides merdae): 32 µg/mL
- MIC (Blautia producta): 0.25 µg/mL
- MIC50 (Blautia producta): 0.25 µg/mL
- MIC90 (Blautia producta): 2 µg/mL
- MIC (Clostridium beijerinckii): 0.25 µg/mL
- MIC50 (Clostridium beijerinckii): 0.25 µg/mL
- MIC90 (Clostridium beijerinckii): 1 µg/mL
- MIC (Schaalia odontolytica): 0.25 µg/mL
- MIC50 (Schaalia odontolytica): 0.25 µg/mL
- MIC90 (Schaalia odontolytica): 2 µg/mL
- MIC50 [6]: 16 µg/mL
- MIC90 [6]: 32 µg/mL
- MIC [7]: 0.25 µg/mL
- MIC50 [7]: 0.25 µg/mL
- MIC90 [7]: 2 µg/mL
- MIC (Parvimonas micra): 0.25 µg/mL
- MIC50 (Parvimonas micra): 0.25 µg/mL
- MIC90 (Parvimonas micra): 2 µg/mL
- MIC (Eggerthella lenta): 0.25 µg/mL
- MIC50 (Eggerthella lenta): 0.25 µg/mL
- MIC90 (Eggerthella lenta): 2 µg/mL
- MIC (Clostridium sporogenes): 0.25 µg/mL
- MIC50 (Clostridium sporogenes): 0.25 µg/mL
- MIC90 (Clostridium sporogenes): 1 µg/mL
- MIC50 (Bacteroides fragilis): 1 µg/mL
- MIC90 (Bacteroides fragilis): 16 µg/mL
- MIC (Clostridium fallax): 0.25 µg/mL
- MIC50 (Clostridium fallax): 0.25 µg/mL
- MIC90 (Clostridium fallax): 1 µg/mL
- MIC (Eubacterium cylindroides): 0.25 µg/mL
- MIC50 (Eubacterium cylindroides): 0.25 µg/mL
- MIC90 (Eubacterium cylindroides): 2 µg/mL
- MIC (Ruminococcus lactaris): 0.25 µg/mL
- MIC50 (Ruminococcus lactaris): 0.25 µg/mL
- MIC90 (Ruminococcus lactaris): 2 µg/mL
- MIC (Clostridium scindens): 0.25 µg/mL
- MIC50 (Clostridium scindens): 0.25 µg/mL
- MIC90 (Clostridium scindens): 1 µg/mL
- MIC (Ruminococcus torques): 0.25 µg/mL
- MIC50 (Ruminococcus torques): 0.25 µg/mL
- MIC90 (Ruminococcus torques): 2 µg/mL
- MIC (Clostridium tertium): 0.25 µg/mL
- MIC50 (Clostridium tertium): 0.25 µg/mL
- MIC90 (Clostridium tertium): 1 µg/mL
